Patent US20200397795A1, “PROPHYLACTIC TREATMENT OF VENOUS THROMBOEMBOLISM” (JANSSEN PHARMACEUTICALS, INC., priority 2019, published 2020)
Where “and” joins values, the source holds several entries; their conditions need not be identical. Identical values can stand only once.

Columns and labels:
[1] = tested on: bleeding events in patients hospitalized for acute medical illness; experiment: MAGELLAN (Study 1): safety, bleeding events and adverse events; assay type: in vivo, human; conditions: for Fatal bleeding events, number: Day 1 to 10; for Treatment-emergent fatal bleeding events, number: Day 1 to 35; for Pulmonary embolism confirmed (deaths), number: entire study duration; for Investigator-reported deaths, incidence / VTE-related deaths, incidence: entire study duration (Day 1 to 90); for Bleeding events that required blood transfusions of 2 units / Bleeding events that resulted in a fall of Hb to ≥2 g/dL / Investigator-reported TEAEs leading to permanent discontinuation of study drug: in vivo
Text: The safety component of Criteria for Evaluation was the primary safety endpoint of incidence of the composite of treatment-emergent major bleeding events and non-major clinically relevant bleeding events observed during treatment and not later than 2 days after the last intake of double-blind study drug.
The primary safety outcome of the study was the treatment-emergent clinically relevant bleeding events, which were a composite of treatment-emergent adjudicated major bleeding events and clinically relevant non-major bleeding events.
The safety analysis was performed on 7998 randomized subjects who received at least one dose of study drug, rivaroxaban (3997 subjects) or enoxaparin (4001 subjects).
The primary safety outcome of the study was the assessment of clinically relevant bleeding events, which are a composite of treatment-emergent adjudicated major bleeding events and clinically relevant non-major bleeding events.

[2] = tested on: bleeding events in MAGELLAN subpopulation; experiment: Retrospective analysis of MAGELLAN subpopulation: safety (bleeding); assay type: in vivo
Text: Using key exclusion criteria from Study 2: MARINER to exclude subjects with a higher risk of bleeding, a subpopulation of Study 1: MAGELLAN was retrospectively analyzed to re-evaluate benefit-risk in this subpopulation, which included efficacy endpoints of symptomatic VTE and VTE-related death and safety endpoints of major bleeding events. The key exclusion criteria from Study 2: MARINER that were retrospectively applied to the Study 1: MAGELLAN population for this analysis included: active gastroduodenal ulcer within 3 months of randomization/currently symptomatic; any bleeding within 3 months prior to randomization or during index hospitalization; active cancer at randomization; medical history of severe bronchiectasis/pulmonary cavitation; or dual antiplatelet therapy at baseline. Subjects that met one or more of these criteria prior to or at randomization using standardized MedDRA queries or preferred terms of MedDRA version 13.1 based on data entered into the case report forms in the original MAGELLAN database were excluded from the subpopulation analysis.
The MAGELLAN study (Study 1) randomized 8,101 patients from 562 sites in 52 countries and the safety population of patients that received at least one dose of study medication was 7,998 patients. The five key risk factors for major bleeding events in MAGELLAN were identified using study data forms as described herein. With the retrospective use of these risk factors, 1,551 patients were excluded from MAGELLAN and the remaining 6,447 patients, approximately 80% of MAGELLAN, represented the subpopulation. Patients in both treatment groups had no differences in baseline characteristics, and had similar medical histories, with at least 99% of patients having complete immobility or decreased mobility and median total number of days in hospital of 10.

[3] = tested on: events prevented vs bleeding events caused; experiment: MARINER benefit-risk analysis (excess number of events per 10,000 subjects); assay type: in vivo, human
Experimental: The benefit-risk of rivaroxaban versus placebo was evaluated based on the excess number of events between treatments for events intended to be prevented (benefits) and events that were caused (risks).
Although the primary efficacy endpoint was not statistically different between rivaroxaban and placebo, the benefit-risk analyses were conducted to further assess the totality of the data. Based on the ITT analysis set and Up-to-Day 45 analysis phase, for 10,000 subjects treated with rivaroxaban up to 45 days, on average, rivaroxaban would prevent 27 events of the composite of symptomatic VTE and VTE-related death, while causing 12 more major bleeding events than with placebo. […] Therefore, focusing instead on major thrombotic events that were fatal or caused potentially irreversible harm, on average, rivaroxaban would prevent 55 events of the composite of nonfatal PE, MI, non-hemorrhagic stroke, and non-hemorrhagic ACM, while causing 2 more events of the composite of critical site bleeding and fatal bleeding than with placebo.

[4] = tested on: events prevented vs bleeding events caused; assay type: in vivo, human
Text: The same time period was utilized, preventing double counting for fatal bleeds, with all bleeds through Day 35 included (even if off treatment), and bleeding deaths were not counted as CV deaths. Using the primary endpoint, there would be 131 fewer events in the rivaroxaban group with a number-to-treat to benefit (NNT) of 77 to prevent one event, but this was counterbalanced by causing 51 more major bleeds. The benefit risk profile was improved in the subpopulation, with 182 events prevented and only 18 major bleeds caused, with NNT and number-to-treat to harm (NNH) of 55 and 560, respectively. […] More ischemic events were prevented than hemorrhagic events caused in the subpopulation in all five pairs of clinically meaningful endpoints which included asymptomatic and symptomatic VTE and VTE-related death, major bleeding, and fatal and irreversible thrombotic and bleed events. For 35 days of treatment, the number need to treat to prevent 1 event ranged from 55 to 481 for the 5 pairs, while the number needed to harm ranged from 455-1,067.

[5] = tested on: bleeding events in high-risk, medically ill subjects; experiment: MARINER (Study 2): safety, ISTH bleeding and adverse events
Text: The safety objectives were to compare rivaroxaban with placebo in the following bleeding outcomes in high-risk, medically ill subjects: • Major bleeding using validated International Society on Thrombosis and Haemostasis (ISTH) bleeding criteria. • Non-major clinically relevant (NMCR) bleeding. • Other bleeding.
Safety assessment was based on bleeding events classified by validated ISTH criteria as major bleeding (principal safety outcome), NMCR bleeding, or Other bleeding. […] The safety outcome of NMCR bleeding was defined as overt bleeding not meeting ISTH criteria for major bleeding, but associated with medical intervention, unscheduled contact (visit or telephone call) with a physician, (temporary) cessation of study treatment, or associated with discomfort for the subject such as pain or impairment of activities of daily life. […] Overall safety was also assessed.
The principal safety outcome was major bleeding based on validated ISTH criteria. Treatments were compared using the same statistical model (i.e., Cox proportional hazards model) as that for the primary efficacy outcome. The same analyses were used for NMCR bleeding. Safety analyses were based on the safety analysis set and on-treatment analysis phase. Bleeding events were analyzed based on time from randomization to the first occurrence.

[6] = rivaroxaban-enoxaparin phase (Day 1 to 10)
[7] = rivaroxaban-enoxaparin/placebo phase (Day 1 to 35)
[8] = rivaroxaban-placebo phase (Day 10 to 35)
[9] = post-discharge phase, entire population and subpopulation
[10] = entire MAGELLAN population, through Day 35
[11] = 10 mg dose stratum, for 10,000 subjects
[12] = for 10,000 subjects treated up to 45 days
[13] = subpopulation, primary endpoint

Molecule: Enoxaparin
- Fatal bleeding events, number ([1]; entire population): 1 cases
- Treatment-emergent fatal bleeding events, number [1]: 1 subjects
- Major bleeding events, incidence ([1]; Day 1 to Day 10): 0.3%
- Investigator-reported SAEs, incidence ([1]; Day 1 to Day 35): 0.8%
- Investigator-reported TEAEs, incidence ([1]; Day 1 to Day 35): 8.5%
- Investigator-reported drug-related TEAEs, incidence ([1]; Day 1 to Day 35): 4.2%
- Major bleeding events, incidence ([1]; Day 1 to Day 35): 0.4%
- Pulmonary bleeding site (critical site bleeding), incidence ([1]; Day 1 to Day 35): 0%
- Retroperitoneal bleeding site (critical site bleeding), incidence ([1]; Day 1 to Day 35): 0%
- Clinically relevant non-major bleeding events, incidence ([1]; all phases of the study): 2.1%
- Major bleeding events, incidence ([1]; all phases of the study): 0.9%
- Minimal bleeding events, incidence ([1]; all phases of the study): 8.2%
- Pulmonary embolism confirmed (deaths), number [1]: 1 subjects
- Investigator-reported deaths, incidence [1]: 6.5%
- VTE-related deaths, incidence [1]: 1.2%
- Major bleeding events, incidence ([1]; follow-up phase): 0.6%
- Bleeding events that required blood transfusions of 2 units [1]: 0.2%
- Bleeding events that resulted in a fall of Hb to ≥2 g/dL [1]: 0.2%
- Investigator-reported TEAEs leading to permanent discontinuation of study drug [1]: 1.5%
- Clinically relevant bleeding events, incidence [1, 6]: 1.2%
- Clinically relevant bleeding events, incidence [1, 7]: 1.7%
- Clinically relevant bleeding events, incidence [1, 8]: 0.5%
- Fatal bleeds, number [2, 9]: 0
- Fatal bleeds, number ([2]; subpopulation, Day 10): 1
- Clinically relevant bleeding (major and NMCR), incidence ([2]; subpopulation, Day 35): 1.5%
- Major bleeding, incidence ([2]; subpopulation, through Day 35): 0.47%

Molecule: O=C(NC[C@H]1CN(c2ccc(N3CCOCC3=O)cc2)C(=O)O1)c1ccc(Cl)s1 [Rivaroxaban, 5-chloro-N-({(5S)-2-oxo-3-[4-(3-oxo-4-morpholinyl)phenyl]-1,3,oxazolidin-5-yl}methyl)-2-thiophenecarboxamide]
- Fatal bleeding events, number ([1]; entire population): 5 cases
- Treatment-emergent fatal bleeding events, number [1]: 7 subjects
- Major bleeding events, incidence ([1]; Day 1 to Day 10): 0.6%
- Intracranial bleeding site (critical site bleeding), incidence ([1]; Day 1 to Day 35): 0.1%
- Investigator-reported SAEs, incidence ([1]; Day 1 to Day 35): 2.0%
- Investigator-reported TEAEs, incidence ([1]; Day 1 to Day 35): 12.5%
- Investigator-reported drug-related TEAEs, incidence ([1]; Day 1 to Day 35): 6.9%
- Major bleeding events, incidence ([1]; Day 1 to Day 35): 1.1%
- Major bleeding events, incidence ([1]; Day 10 to Day 35): 0.5%
- Clinically relevant non-major bleeding events, incidence ([1]; all phases of the study): 4.0%
- Major bleeding events, incidence ([1]; all phases of the study): 1.6%
- Minimal bleeding events, incidence ([1]; all phases of the study): 9.6%
- Major bleeding, RR vs enoxaparin-placebo [1, 10]: 2.87
- Fatal bleeds, incidence ([1]; entire population, Day 10): 0.1%
- Major bleeding, relative risk ([1]; entire population, Day 10): 2.18
- Fatal bleeds, incidence ([1]; entire population, Day 35): 0.2%
- Pulmonary embolism confirmed (deaths), number [1]: 2 subjects
- Investigator-reported deaths, incidence [1]: 7.0%
- VTE-related deaths, incidence [1]: 1.0%
- Major bleeding events, incidence ([1]; follow-up phase): 0.6%
- Bleeding events that required blood transfusions of 2 units [1]: 0.6%
- Bleeding events that resulted in a fall of Hb to ≥2 g/dL [1]: 0.8%
- Investigator-reported TEAEs leading to permanent discontinuation of study drug [1]: 3.1%
- Clinically relevant bleeding events, incidence [1, 6]: 2.8%
- Relative risk, clinically relevant bleeding [1, 6]: 2.272
- Clinically relevant bleeding events, incidence [1, 7]: 4.1%
- Relative risk, clinically relevant bleeding [1, 7]: 2.46 and 2.455
- Clinically relevant bleeding events, incidence [1, 8]: 1.4%
- Relative risk, clinically relevant bleeding [1, 8]: 2.958
- Major bleeding, relative risk ([2]; human, in vivo, 10 day): 1.19
- Clinically relevant bleeding (major and NMCR), incidence ([2]; human, in vivo, 35 day): 3.5%
- Clinically relevant bleeding, RR vs enoxaparin ([2]; human, in vivo, 35 day): 2.35
- Major bleeding, RR vs enoxaparin-placebo ([2]; human, in vivo, 35 day): 1.48
- Major bleeding, incidence ([2]; human, in vivo, 35 day): 0.68%
- Fatal bleeds, number [2, 9]: 2
- Fatal bleeds, incidence ([2]; subpopulation, Day 10): less than 0.1%
- Fatal bleeds, number ([2]; subpopulation, Day 10): 1
- Fatal bleeds, incidence ([2]; subpopulation, Day 35): less than 0.1%
- Additional critical site and fatal bleeding vs placebo ([3]; 10 mg dose stratum): no additional
- Events of composite of nonfatal PE, MI, non-hemorrhagic stroke, non-hemorrhagic ACM prevented vs placebo [3, 11]: 63 events
- Events of composite of symptomatic VTE and VTE-related death prevented vs placebo [3, 11]: 33 events
- Events of composite of nonfatal PE, MI, non-hemorrhagic stroke, non-hemorrhagic ACM prevented vs placebo [3, 12]: 55 events
- More events of composite of critical site bleeding and fatal bleeding than with placebo [3, 12]: 2 events
- Events of composite of symptomatic VTE and VTE-related death prevented vs placebo ([3]; for 10,000 subjects treated up to 45 days, ITT): 27 events
- More major bleeding events caused than with placebo ([3]; human, in vivo): 12 events
- Number-to-treat to benefit (NNT) to prevent one event ([4]; entire MAGELLAN population, primary endpoint): 77
- Fewer primary endpoint events in the rivaroxaban group [4, 10]: 131 events
- Major bleeds caused ([4]; human, in vivo, 35 day): 18
- More major bleeds caused ([4]; human, in vivo, 35 day): 51
- Number needed to harm, range over 5 benefit-risk pairs ([4]; human, in vivo, 35 day): 455-1,067
- Number-to-treat to harm (NNH) ([4]; human, in vivo, 35 day): 560
- Events prevented [4, 13]: 182 events
- NNT [4, 13]: 55
- Fatal bleeding, incidence ([5]; 10 mg dose stratum): 0.04%
- Fatal bleeding, incidence ([5]; on-treatment, safety analysis set): 0.03%
- AEs with outcome of death, n (%) ([5]; safety analysis set): 95 (1.6) %
